In US20060270694A1, “JAK kinase inhibitors and their uses” (Rigel Pharmaceuticals, Inc., priority 2005, published 2006):

system: JAK kinase (JAK1 and JAK3); experiment: IL-4 activation assay: CD23 upregulation in IL-4 stimulated Ramos B-cells, FACS; type: cell-based, human; conditions: TABLE 2; IC50 CHMC degranulation (tryptase) / IC50 IL-4 Ramos CD23
Method: The selectivity of the compounds illustrated in TABLES 1 and 2 for JAK kinases as compared to Syk kinase was confirmed in cellular assays designed to test for JAK and Syk inhibition. Briefly, JAK inhibition was tested in human Ramos B-cells activated with IL-4. Twenty to 24 hours post stimulation, the cells are stained for upregulation of CD23 and analyzed by FACS. Stimulation of the B-cells with IL-4 leads to the activation of the JAK/STAT pathway through phosphorylation of the JAK kinase JAK1 and JAK3, which in turn phosphorylate and activate transcription of factor […].
For the assay, human Ramos B-cells (ATCC, Catalog No. CRL-1596) are cultured in RPMI 1640 medium (Cellgro, Catalog No. 10-040-CM) containing 10% fetal bovine serum (JRH, Catalog No. 12106-500M) according to the propagation protocol supplied with the cells, and maintained at a density of approximately 3.5×10^5 cells/ml. The day before the assay, the cells are diluted to 3.5×10^5 cells/ml to insure they are in the logorithmic growth phase. The cells are spun down, and suspended in RPMI 1640 medium containing 5% fetal bovine serum to a density of 3.5×10^4 cells/ml and aliquots dispensed into a 96-well tissue culture plate. Cells are incubated with test compound (dissolved in DMSO) or DMSO (control) for 1 hr at 37° C. and then stimulated with IL-4 (Pepotech, Catalog No. 200-04) for 20-24 hours (final concentration is 50 Units/ml). Cells are then spun down, stained with anti-CD23-PE antibody (BD Pharmigen, Catalog No.555711) and analyzed by FACS.

Row | SMILES | IC50 Ratio (Syk/JAK)
1 | CCN(CC)CNC(=O)c1ccc(Nc2ncc(F)c(Nc3ccc4c(c3)C(=O)NC(=O)C4(C)C)n2)cc1 [Cmpd 65] | 18
2 | CNC(=O)CNC(=O)c1ccc(Nc2ncc(F)c(Nc3ccc(OC)c(Cl)c3)n2)cc1 [Cmpd 66] | 17
3 | COC(=O)CNC(=O)c1ccc(Nc2ncc(F)c(Nc3ccc(OCc4nc(C)no4)cc3)n2)cc1 [Cmpd 67] | 17
4 | CNC(=O)COc1cccc(Nc2ncc(F)c(Nc3ccc(OC)c(C(=O)OC)c3)n2)c1 [Cmpd 68] | 16
5 | Cc1cc(Nc2ncc(F)c(NC3C=C[C@@H](C(N)=O)C3)n2)ccc1N1CCN(C)CC1 (stereo partly shown) [Cmpd 69] | 16
6 | CNC(=O)CNC(=O)c1ccc(Nc2ncc(F)c(Nc3ccc4c(c3)NC(=O)C(C)(C)O4)n2)cc1 [Cmpd 70] | 15
7 | CNC(=O)COc1cccc(Nc2ncc(F)c(Nc3cccc(OC(=O)N(C(=O)NC(C)C)C(C)C)c3)n2)c1 [Cmpd 71] | 15
8 | CN1CCN(c2ccc(Nc3ncc(F)c(NC4CCCC4)n3)cc2Cl)CC1 [Cmpd 72] | 14
9 | COC(=O)CNC(=O)c1ccc(Nc2ncc(F)c(Nc3ccc(C(N)=O)cc3)n2)cc1 [Cmpd 73] | 14
10 | O=C(Nc1ccc(Nc2ncc(F)c(NC3CCCCC3)n2)cc1)c1ccccc1 [Cmpd 74] | 14
11 | COc1ccc(Nc2ncc(F)c(Nc3ccc4c(c3)NC(=O)CO4)n2)cc1Cl [Cmpd 75] | 14
12 | COc1cc(Nc2nc(Nc3ccc(CN)cc3)ncc2F)cc(OC)c1 [Cmpd 76] | 14
13 | Cc1cc(Nc2ncc(F)c(NC3CCCC3)n2)cnc1N1CCN(C)CC1 [Cmpd 77] | 13
14 | Cc1noc(COc2ccc(Nc3nc(Nc4ccc(C(N)=O)c(O)c4)ncc3F)cc2)n1 [Cmpd 78] | 13
15 | O=C1Nc2cc(Nc3nc(Nc4ccc(-c5cnco5)cc4)ncc3F)ccc2OC1CCO (stereo not shown) [Cmpd 79] | 12
16 | COc1ccc(Nc2nc(Nc3cc(Cl)c(O)c(Cl)c3)ncc2F)cc1Cl [Cmpd 80] | 11
17 | CNC(=N)COc1ccc(Nc2nc(Nc3ccc4c(c3)OCCO4)ncc2F)cc1 [Cmpd 81] | 11
18 | Cc1noc(COc2ccc(Nc3nc(Nc4ccc(C(N)=O)cc4)ncc3F)cc2)n1 [Cmpd 82] | 10
19 | COc1ccc(Nc2nc(Nc3ccc(C(N)=O)c(Cl)c3)ncc2F)cc1Cl [Cmpd 83] | 10
20 | CNC(=O)Cn1ncc2ccc(Nc3nc(Nc4ccc5c(c4)OCCO5)ncc3F)cc21 [Cmpd 84] | 10
21 | CNS(=O)(=O)c1ccc(Nc2ncc(F)c(Nc3ccc(OC)c(OC)c3)n2)cc1OC [Cmpd 85] | 10
22 | CNC(=O)COc1cccc(Nc2ncc(F)c(Nc3ccc4c(c3)C(N(C)C(=O)OC(C)(C)C)CCO4)n2)c1 (stereo not shown) [Cmpd 86] | 10
23 | CN1CCN(c2ccc(Nc3ncc(F)c(NC4CCCC4C(N)=O)n3)cc2Cl)CC1 (stereo not shown) [Cmpd 87] | 10
24 | COC(=O)CNC(=O)c1ccc(Nc2nc(Nc3cccc(O)c3)ncc2F)cc1 [Cmpd 88] | 10
25 | Cc1cc(Nc2nc(Nc3ccc(C(N)=O)c(Cl)c3)ncc2F)ccc1N1CCN(C)CC1 [Cmpd 89] | 10
